A short description of series [1]: Kinetic solubility in aqueous buffer. The class given is physicochemical. The settings on record: 2 hrs at 25 °C. As to the method:
Experimental Methods: 30 µL of the 10 mM DMSO stock solution of the compound to be test was placed in a solubility sample plate (duplicate), 970 µL of aqueous buffer solution was added to the plate, and the plate was sealed with a sealing membrane and shaken at 1100 rpm for 2 hrs at 25 °C. The sample in the solubility plate was transferred to a filter plate, and filtered to obtain a filtrate. 10 µL of the filtrate was transferred into 980 µL of methanol along with 10 µL of DMSO, and then the solution was diluted 10-fold with methanol:water (1:1), and the resulting sample was analyzed by LC-MS/MS to obtain Area (filtered). Separately, 10 mM of the DMSO stock solution of the compound to be test was diluted to 300 µM with DMSO. 10 µL of this 300 µM DMSO solution and 10 µL of aqueous buffer solution were added into 980 µL of methanol, and then diluted 10-fold with methanol:water (1:1), and the resulting sample was analyzed by LC-MS/MS to obtain Area (std). The kinetic solubility was calculated according to the following formula: Solubility(μM) = (Areafiltered × DFfiltered)/(Areastd × DFstd) × [std] × DFstd [formula] wherein DF is the dilution factor.

In another series the test system is IL-8. The series can be described thus: IL-8 gene expression in HaCaT after UVB radiation (q-PCR). Particulars: UVB 80 mJ/cm^2, 24 hrs, dose-dependent. The class given is cell-based, human. From the text:
(§1) In the following Test Examples 6-1 and 6-2, using immortalized keratinocytes (HaCaT) and UVB to establish a model, after the compound to be test was applied to HaCaT, the expression levels of TNF-α, IL-8, IL-1β and EP2 were detected; using immortalized keratinocytes (HaCaT) and capsaicin to establish a model, after the compound to be test was applied to HaCaT, the expression level of TRPV1 was detected, so as to evaluate the soothing effect of the test substance from multiple dimensions.
(§2) • 1) Cell inoculation: HaCaT cells were inoculated into a 6-well plate at 6×10^5/well, cultured in an incubator (37°C, 5% CO2) for 12 hrs, and a normal control group (0 mJ/cm^2 + vehicle control), a model control group (80 mJ/cm^2 + vehicle control), a low concentration group (80 mJ/cm^2 + low concentration compound), a medium concentration group (80 mJ/cm^2 + medium concentration compound), and a high concentration group (80 mJ/cm^2 + high concentration compounds) were respectively provided. • 2) UVB modeling: The HaCaT cells were washed 3 times with D'Hanks before UVB radiation, 1 mL of D'Hanks was added into the wells, to make the cells to be immersed, and the control group was coated with tinfoil and placed in the dark. […]

The test system of another series is IL-1β. Briefly: IL-1β gene expression in HaCaT after UVB radiation (q-PCR). The class given is cell-based, human. Particulars: UVB 80 mJ/cm^2, 24 hrs, dose-dependent.
From the text: as §1, §2

The subject of the next series is TRPV1. The series can be described thus: TRPV1 gene expression in HaCaT after capsaicin stimulation (q-PCR). The class given is cell-based, human. The settings on record: 15 µM capsaicin, dose-dependent.
From the text: as §1
• 1) Cell inoculation: HaCaT cells were inoculated into a 6-well plate at 6 × 10^5/well, cultured in an incubator (37 °C, 5% CO2) for 12 hrs, and a normal control group (0 µM capsaicin + vehicle control), a model control group […] concentration group (15 µM capsaicin + low concentration compound), a medium concentration group (15 µM capsaicin + medium concentration compound), and a high concentration group (15 µM capsaicin + high concentration compound) were respectively provided. • 2) Induction and administration: The culture solution in the 6-well plate was discarded and the administration operation was carried out. The culture solution containing the test substance and the capsaicin stock solution was added according to the above drug group, and 1 mL was added to each well. […]

In another series the test system is COL3A1. Briefly: Collagen III gene expression in HaCaT human immortalized keratinocytes. The settings on record: 24 hrs, dose-dependent. It is filed as cell-based. From the text: (§3) Skin fragility is partly attributed to changes in hemidesmosomes and the expression downregulation of various collagen proteins (Collagen I, III, IV, VII) or laminins (such as LN-5) at the dermal-epidermal junction. LN-5 has been proven to be a component of anchoring fibers in the basement membrane of the skin, cornea, conjunctiva, and other tissues. LN-5 participates in cell-cell interactions through the mediation of integrins and proteoglycans, thereby playing a crucial role in cell adhesion, growth, migration, and differentiation. The appearance of wrinkles is closely related to the normal synthesis and expression of collagen and laminins. Therefore, the increase of the above collagen content and LN-5 can achieve a certain role in resisting wrinkles, and plays an important role in the aging process of the skin. Therefore, the anti-wrinkle effect of the compound to be tested was evaluated by detecting the level of Collage I protein of […] by ELISA, and detecting the transcription levels of epidermal cells (keratinocytes) III, IV, VII and LN -5 by Real-Time PCR. The following Test Examples 8-1 and 8-2 evaluated the anti-wrinkle efficacy of compounds using HaCaT human immortalized keratinocytes and HSF human skin fibroblasts. […]

A further series has as its system COL7A1. Briefly: Collagen VII gene expression in HaCaT human immortalized keratinocytes. It is filed as cell-based. Particulars: 24 hrs, dose-dependent.
From the text: as §3

A further series deals with LAMA5. The series can be described thus: LN-5 gene expression in HaCaT human immortalized keratinocytes. The settings on record: 24 hrs, dose-dependent. It is filed as cell-based.
From the text: as §3

This note sets out measurements from patent EP4803511A1, “SMALL MOLECULE COMPOUND HAVING SULFONIC ACID OR SULFINIC ACID LACTONE STRUCTURE, COMPOSITION AND USE THEREOF” (Hangzhou Phecdamed Co., Ltd., priority 2023, dated 2025).

With `O=S1(=O)Oc2cc(O)ccc2-c2ccc(O)cc21` [Compound I-8], the kinetic solubility at 2 h in series [1] is greater than 300 µM. The “expression level of IL-8” value in the series with IL-8 is reported as “downregulating”. Also, in the series with IL-1β, the “expression level of IL-1β” value is reported as “downregulating”. Moreover, the “expression level of TRPV1” value in the series with TRPV1 is listed as “downregulating”. Further, in the series on COL3A1, the COL341 gene expression result is recorded as “upregulate”. The COL7A1 gene expression result with COL7A1 is given as “upregulate”. Moreover, in the series with LAMA5, the LAMA5 gene expression entry is “upregulate”.
